Results from patent US10399932B2, “Inhibitors of indoleamine-2,3-dioxygenase for the treatment of cancer” (BRISTOL-MYERS SQUIBB COMPANY, priority 2015, dated 2019).
pIC50: −log10 of the molar value.

Target: human IDO1 (Homo sapiens, UniProt P14902)
Assay: Assessment of human IDO-1 inhibitory activity in HEK cells (human IDO1/HEK293 cells, Ehrlich reagent, absorbance at 490 nm)
Format: cell-based
Design: expressed in transfected cells
Conditions: In Vitro Potency in the HEK Human IDO-1 Cellular Assay
Experimental: Exemplary compounds were tested for inhibition of IDO activity.
HEK293 cells were transfected with a pCDNA-based mammalian expression vector harboring human IDO1 cDNA (NM 002164.2) by electroporation. They were cultured in medium (DMEM with 10% FBS) containing 1 mg/ml G418 for two weeks. Clones of HEK293 cells that stably expressed human IDO1 protein were selected and expanded for IDO inhibition assay.
The human IDO1/HEK293 cells were seeded at 10,000 cells per 50 μL per well with RPMI/phenol red free media contains 10% FBS in a 384-well black wall clear bottom tissue culture plate (Matrix Technologies LLC) 100 nL of certain concentration of compound was then added to each well using ECHO liquid handling systems. The cells were incubated for 20 hours in 37° C. incubator with 5% CO2.
The compound treatments were stopped by adding trichloroacetic acid (Sigma-Aldrich) to a final concentration at 0.2%. The cell plate was further incubated at 50° C. for 30 minute. The equal volume supernatant (20 μL) and 0.2% (w/v) Ehrlich reagent (4-dimethylaminobenzaldehyde, Sigma-Aldrich) in glacial acetic acid were mixed in a new clear bottom 384-well plate. This plate was then incubated at room temperature for 30 minute. The absorbance at 490 nm was measured on Envision plate reader.
Compound IC50 values were calculated using the counts of 500 nM of a reference standard treatment as one hundred percent inhibition, and counts of no compound but DMSO treatment as zero percent inhibition.

Chain of human IDO1 (P14902 whole entry): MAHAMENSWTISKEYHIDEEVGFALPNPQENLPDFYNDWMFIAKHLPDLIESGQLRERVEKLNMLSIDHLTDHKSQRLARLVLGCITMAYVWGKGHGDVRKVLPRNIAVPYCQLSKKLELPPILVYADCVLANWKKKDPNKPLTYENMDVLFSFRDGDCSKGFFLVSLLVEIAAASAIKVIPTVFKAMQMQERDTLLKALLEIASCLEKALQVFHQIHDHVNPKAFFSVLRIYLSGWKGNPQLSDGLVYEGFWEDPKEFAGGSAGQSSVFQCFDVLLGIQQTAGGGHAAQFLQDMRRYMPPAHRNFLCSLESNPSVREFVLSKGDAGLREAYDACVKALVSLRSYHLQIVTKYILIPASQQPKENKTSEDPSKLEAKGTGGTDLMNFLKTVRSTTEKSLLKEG

Row | Compound | pIC50
1 | CCC(CC(=O)O)c1ccc(N(CC2CC2)C2CCOCC2)c(Nc2ccc3nc(C)sc3c2)c1 (single isomer, unassigned) [Example 707, 3-(4-((Cyclopropylmethyl)(tetrahydro-2H-pyran-4-yl)amino)-3-((2-methylbenzo[d]thiazol-6-yl)amino)phenyl)pentanoic acid] | > 7.30
2 | CCC(CC(=O)O)c1ccc(N(CC2CC2)C2CCOCC2)c(Nc2ccc(Cl)cc2)c1 (single isomer, unassigned) [Example 708, 3-(3-((4-chlorophenyl)amino)-4-((cyclopropylmethyl)(tetrahydro-2H-pyran-4-yl)amino)phenyl)pentanoic acid] | > 8.30
3 | CCC(CC(=O)O)c1ccc(N(CC2CC2)C2CCOCC2)c(Nc2cnc(OC)nc2)c1 (single isomer, unassigned) [Example 709, 3-(4-((cyclopropylmethyl)(tetrahydro-2H-pyran-4-yl)amino)-3-((2-methoxypyrimidin-5-yl)amino)phenyl)pentanoic acid] | > 8.30
4 | CCC(CC(=O)O)c1ccc(N(CC2CC2)C2CCOCC2)c(Nc2ccc3c(c2)OC(F)(F)O3)c1 (single isomer, unassigned) [Example 710, 3-(4-((cyclopropylmethyl)(tetrahydro-2H-pyran-4-yl)amino)-3-((2,2-difluorobenzo[d][1,3]dioxol-5-yl)amino)phenyl)pentanoic acid] | > 8.30
5 | CCOc1ncc(Nc2cc(C(CC)CC(=O)O)ccc2N(CC2CC2)C2CCOCC2)cn1 (single isomer, unassigned) [Example 711, 3-(4-((cyclopropylmethyl)(tetrahydro-2H-pyran-4-yl)amino)-3-((2-ethoxypyrimidin-5-yl)amino)phenyl)pentanoic acid] | > 8.30
6 | CCC(CC(=O)O)c1ccc(N(CC2CC2)C2CCOCC2)c(Nc2ccc(C#N)cc2)c1 (single isomer, unassigned) [Example 712, 3-(3-((4-cyanophenyl)amino)-4-((cyclopropylmethyl)(tetrahydro-2H-pyran-4-yl)amino)phenyl)pentanoic acid] | > 8.30
7 | CCC(CC(=O)O)c1ccc(N(CC2CC2)C(C)C)c(Nc2ccc(Cl)cc2)c1 (single isomer, unassigned) [Example 717, 3-(3-((4-chlorophenyl)amino)-4-((cyclopropylmethyl)(isopropyl)amino)phenyl)pentanoic acid] | > 8.30
8 | CCC(CC(=O)O)c1ccc(N(CC(C)C)C(C)C)c(Nc2ccc(Cl)cc2)c1 (single isomer, unassigned) [Example 728, 3-(3-((4-Chlorophenyl)amino)-4-(isobutyl(isopropyl)amino)phenyl)pentanoic acid] | > 8.30
9 | CC(CC(=O)O)c1ccc(N2C[C@@H](C)O[C@@H](C)C2)c(Nc2ccc(C#N)cc2)c1 (single isomer, unassigned) [Example 743] | < 7.30
10 | CC(CC(=O)O)c1ccc(N2C[C@@H](C)O[C@@H](C)C2)c(Nc2ccc(F)cc2)c1 (single isomer, unassigned) [Example 744] | < 7.30
11 | CCc1ccc(Nc2cc(C(C)CC(=O)O)ccc2N2C[C@@H](C)O[C@@H](C)C2)cc1 (single isomer, unassigned) [Example 746] | < 7.30
12 | CCOc1ncc(Nc2cc(C(C)CC(=O)O)ccc2N2C[C@@H](C)O[C@@H](C)C2)cn1 (single isomer, unassigned) [Example 748] | < 7.30
13 | CCC(CC(=O)O)c1ccc(N2C[C@@H](C)O[C@@H](C)C2)c(Nc2ccc3nc(C)sc3c2)c1 (single isomer, unassigned) [Example 757] | < 7.30
14 | CCC(CC(=O)O)c1ccc(N2C[C@@H](C)O[C@@H](C)C2)c(Nc2ccc(F)cc2)c1 (single isomer, unassigned) [Example 759] | < 7.30
15 | CCC(CC(=O)O)c1ccc(N2CCC[C@@H]2C(C)(C)O)c(NC(=O)Nc2ccc(F)cc2)c1 (single isomer, unassigned) [Example 775] | < 7.30
16 | CCC(CC(=O)O)c1ccc(N2CCC[C@@H]2C(C)(C)O)c(NC(=O)Nc2ccc(Cl)cc2F)c1 (single isomer, unassigned) [Example 776] | < 7.30
17 | CCC(CC(=O)O)c1ccc(N2CCC[C@@H]2C(C)(C)O)c(NC(=O)Nc2ccc(OC)cc2)c1 (single isomer, unassigned) [Example 777] | < 7.30
18 | CCOc1ccc(NC(=O)Nc2cc(C(CC)CC(=O)O)ccc2N2CCC[C@@H]2C(C)(C)O)cc1 (single isomer, unassigned) [Example 778] | < 7.30
19 | CCC(CC(=O)O)c1ccc(N2CCC[C@@H]2C(C)(C)O)c(NC(=O)Nc2ccc(C)cc2)c1 (single isomer, unassigned) [Example 779] | < 7.30
20 | CC(CC(=O)O)c1ccc(N2CCC[C@H]2C(C)(C)O)c(Nc2ccc(C#N)cc2)c1 (single isomer, unassigned) [Example 802] | < 7.30
21 | CC(CC(=O)O)c1ccc(N2CCC[C@H]2C(C)(C)O)c(Nc2ccc(F)cc2)c1 (single isomer, unassigned) [Example 803] | < 7.30

Row | Compound | pIC50
22 | COc1ncc(Nc2cc(C(C)CC(=O)O)ccc2N2CCC[C@H]2C(C)(C)O)cn1 (single isomer, unassigned) [Example 805] | < 7.30
23 | CCOc1ncc(Nc2cc(C(C)CC(=O)O)ccc2N2CCC[C@H]2C(C)(C)O)cn1 (single isomer, unassigned) [Example 806] | < 7.30
24 | CCC(CC(=O)O)c1ccc(N2CCC[C@H]2C(C)(C)O)c(NC(=O)Nc2ccc(OC)cc2)c1 (single isomer, unassigned) [Example 827] | < 7.30
25 | CCC(CC(=O)O)c1ccc(N2CCC[C@H]2C(C)(C)O)c(NC(=O)Nc2ccc(Cl)cc2F)c1 (single isomer, unassigned) [Example 828] | < 7.30
26 | CCC(CC(=O)O)c1ccc(N2CCC[C@H]2C(C)(C)O)c(NC(=O)Nc2ccc(F)cc2)c1 (single isomer, unassigned) [Example 829] | < 7.30
27 | CCC(CC(=O)O)c1ccc(N2CCC[C@H]2C(C)(C)O)c(NC(=O)Nc2ccc(OC)cc2F)c1 (single isomer, unassigned) [Example 830] | < 7.30
28 | CCC(CC(=O)O)c1ccc(N2CCC[C@H]2C(C)(C)O)c(Nc2ccnc(N3CCOCC3)n2)c1 (single isomer, unassigned) [Example 832] | < 7.30
29 | CCC(CC(=O)O)c1ccc(N2CCC[C@H]2C(C)(C)O)c(Nc2ccc(OCC3CC3)cc2)c1 (single isomer, unassigned) [Example 834] | < 7.30
30 | CCc1ccc(Nc2cc(C(CC)CC(=O)O)ccc2N2CCC[C@H]2C(C)(C)O)cc1 (single isomer, unassigned) [Example 835] | < 7.30
31 | CCC(CC(=O)O)c1ccc(N2CCC[C@H]2C(C)(C)O)c(Nc2cnc(OCC3CC3)nc2)c1 (single isomer, unassigned) [Example 838] | < 7.30
32 | CCC(CC(=O)O)c1ccc(N2CCC[C@H]2C(C)(C)O)c(Nc2cnc(OC)nc2)c1 (single isomer, unassigned) [Example 841] | < 7.30
33 | CCC(CC(=O)O)c1ccc(N2CCOC[C@H]2C(C)C)c(NC(=O)Nc2ccc(C)cc2)c1 (single isomer, unassigned) [Example 907] | < 7.30
34 | CCC(CC(=O)O)c1ccc(N2CCOC[C@H]2C(C)C)c(NC(=O)Nc2ccc(Cl)cc2F)c1 (single isomer, unassigned) [Example 908] | > 7.30
35 | Cc1ccc(NC(=O)Nc2cc(C(C)CC(=O)O)c(F)cc2N(CC(C)C)C2CCCCC2)cc1 (single isomer, unassigned) [Example 957, 3-(4-(Cyclohexyl(isobutyl)amino)-2-fluoro-5-(3-(p-tolyl)ureido)phenyl)butanoic acid] | > 8.30
36 | CC(C)CN(c1ccc(C(C)CC(=O)O)cc1NC(=O)Nc1cncnc1)C1CCOCC1 (single isomer, unassigned) [Example 964, 3-(4-(isobutyl(tetrahydro-2H-pyran-4-yl)amino)-3-(3-(pyrimidin-5-yl)ureido)phenyl) butanoic acid] | < 7.30
37 | Cc1ccc(NC(=O)Nc2cc(C(C)CC(=O)O)ccc2N(CC(C)C)C2CCOCC2)cc1 (single isomer, unassigned) [Example 965, 3-(4-(isobutyl(tetrahydro-2H-pyran-4-yl)amino)-3-(3-(p-tolyl)ureido)phenyl)butanoic acid] | > 7.30
38 | CCC(CC(=O)O)c1cc(F)c(N(CC(C)C)CC(C)C)c(NC(=O)Cc2ccc(C)cc2)c1 (single isomer, unassigned) [Example 980-2] | > 8.30
39 | CCC(CC(=O)O)c1cc(F)c(N(CC(C)C)CC(C)C)c(NC(=O)Nc2ccc(Cl)cc2F)c1 (single isomer, unassigned) [Example 981-2] | > 8.30
40 | CCC(CC(=O)O)c1cc(F)c(N(CC(C)C)CC(C)C)c(NC(=O)Nc2ccc(C)c(F)c2)c1 (single isomer, unassigned) [Example 982-2] | > 8.30
41 | COCC(CC(=O)O)c1ccc(N(CC(C)C)C2CCCCC2)c(NC(=O)Nc2ccc(Cl)cc2F)c1 (single isomer, unassigned) [Example 985-2] | > 8.30
42 | COCC(CC(=O)O)c1ccc(N(CC(C)C)C2CCCCC2)c(NC(=O)Nc2cc(C)on2)c1 (single isomer, unassigned) [Example 987-2] | > 7.30
